# Measurements: patent US5436260A, “Angiotensin II receptor antagonists” (Warner-Lambert Company, priority 1994, dated 1995)
# pIC50: −log10 of the molar value. Structures can show the parent of a compound that is named as a salt.
# Biological target: T1, AT1 receptor (Rattus norvegicus, UniProt P25095)
# T1 construct: rat liver membranes; from tissue; host or cells: rat liver membranes
# T1 sequence (P25095 1-359): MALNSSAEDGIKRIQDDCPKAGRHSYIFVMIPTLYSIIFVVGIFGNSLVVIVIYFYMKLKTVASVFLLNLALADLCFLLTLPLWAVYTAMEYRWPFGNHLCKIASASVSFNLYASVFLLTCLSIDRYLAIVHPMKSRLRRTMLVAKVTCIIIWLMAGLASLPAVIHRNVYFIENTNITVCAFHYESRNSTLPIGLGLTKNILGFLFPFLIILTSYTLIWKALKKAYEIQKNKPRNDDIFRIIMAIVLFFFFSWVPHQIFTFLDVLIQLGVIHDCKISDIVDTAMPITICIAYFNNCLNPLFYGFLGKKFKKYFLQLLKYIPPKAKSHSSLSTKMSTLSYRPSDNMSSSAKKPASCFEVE
# Test: [^3 H]angiotensin II binding to rat liver membranes (AT1 test)
# Details: inhibition of [^3 H]angiotensin II binding
# Method in brief: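 Inhibition of [^3 H]angiotensin II binding to rat liver membranes, run by the Dudley et al. 1990 method.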
row,SMILES,pIC50
1,"CCCCc1ncc(/C=C2/C(=O)N(CCCC)C(=O)N2CCc2ccsc2)n1Cc1ccc(C(=O)OC)cc1 [Example 80, Methyl Z-4-[[2-butyl-5-[[1-butyl-2,5-dioxo-3-[2-(3-thienyl)ethyl]-4-imidazolidinylidene]methyl]-1H-imidazol-1-yl]methyl]benzoate monohydrochloride]",7.84
2,"CCCCc1ncc(/C=C2/C(=O)NC(=O)N2Cc2cccs2)n1Cc1ccc(C(=O)OC)cc1 [Example 16b, (Z)-4-[[2-Butyl-5-[[2,5-dioxo-3-((2-thienyl)methyl)-4-imidazolidinylidene]methyl]-1H-imidazole-1-yl]methyl]benzoic acid, methyl ester]",8.16
3,"CCCCc1ncc(/C=C2/C(=O)N(CCCC)C(=O)N2Cc2ccc(C(=O)OC)cc2)n1Cc1ccc(C(=O)OC)cc1 [Example 37, Methyl Z-4-[[2-butyl-5-[[1-butyl-3-[[4-(methoxycarbonyl)phenyl]methyl]-2,5-dioxo-4-imidazolidinylidene]methyl]-1H-imidazol-1-yl]methyl]benzoate monohydrochloride]",7.84
4,"CCCCc1ncc(/C=C2\C(=O)NC(=O)N2CCCC)n1Cc1ccc(C2(C(=O)OC)CCCCC2)cc1 [Example 88b, Methyl E-1-[4-[[2-butyl-5-[[3-butyl-2,5dioxo-4-imidazolidinylidene]methyl]-1H-imidazol-1-yl]methyl]phenyl]cyclohexanecarboxylate]",6.28
5,"CCCCc1ncc(/C=C2\C(=O)NC(=O)N2Cc2ccc(Cl)cc2)n1Cc1ccc(C(=O)O)cc1 [Example 20a, E-4-[[2-butyl-5-[[3-[(4-chlorophenyl)methyl]-2,5-dioxo-4-imidazolidinylidene]methyl]-1H-imidazol-1-yl]methyl]benzoic acid]",8.47
6,"CCCCCCN1C(=O)/C(=C/c2cnc(CCCC)n2Cc2ccc(C(=O)OC)cc2)N(CCCC)C1=O [Example 48, Methyl Z-4-[[2-butyl-5-[(3-butyl-1-hexyl-2,5-dioxo-4-imidazolidinylidene)methyl]-1H-imidazol-1-yl]methyl]benzoate monohydrochloride]",7.84
7,"CCCCc1ncc(/C=C2/C(=O)NC(=O)N2CCCC)n1Cc1ccc(NS(=O)(=O)C(F)(F)F)cc1 [Example 71a, Z-N-[4-[[2-butyl-5-[(3-butyl-2,5-dioxo-4-imidazolidinylidene)methyl]-1H-imidazol-1-1yl]methyl]phenyl]-1,1,1,-trifluoromethanesulfonamide]",8.49
8,"CCCCc1ncc(/C=C2/C(=O)N(CO)C(=O)N2Cc2csc(C)n2)n1Cc1ccc(C(=O)OC)cc1 [Example 101, Methyl Z-4-[[2-butyl-5-[[1-(hydroxymethyl)-3-[(2-methyl-4-thiazolyl)methyl]-2,5-dioxo-4-imidazolidinylidene]methyl]-1H-imidazol-1-yl]methyl]benzoatedihydrochloride]",7.45
9,"CCCCc1ncc(/C=C2/C(=O)N(CCCC)C(=O)N2CCCC(F)(F)F)n1Cc1ccc(C(=O)OC)cc1 [Example 112, Methyl Z-4-[[2-butyl-5-[[1-butyl-2,5-dioxo-3-(4,4,4-trifluorobutyl)-4-imidazolidinylidene]methyl]-1H-imidazol-1-yl]methyl]benzoate dihydrochloride]",8.19
10,"CCCCc1ncc(/C=C2\C(=O)NC(=O)N2c2ccccc2)n1Cc1ccc(C(=O)O)cc1 [Example 5, (E)-4-[[2-Butyl-5-[(2,5-dioxo-3-phenyl-4-imidazol-imidazolidinylidene)methyl]-1H-imidazole-1-yl]methyl]benzoic acid]",6.19
11,"CCCCc1ncc(/C=C2/C(=O)N(CCCC)C(=O)N2Cc2csc(C)n2)n1Cc1ccc(C(=O)OC)cc1 [Example 68, Methyl Z-4-[[2-butyl-5-[[1-butyl-3-[(2-methyl-4-thiazolyl)methyl]-2,5-dioxo-4-imidazolidinylidene]methyl]-1H-imidazol-1-yl]methyl]benzoate dihydrochloride]",8.38
12,"CCCCc1ncc(/C=C2/C(=O)NC(=O)N2CCCC)n1Cc1ccc(C(=O)OC)cc1Cl [Example 87a, Methyl Z-4-[[2-butyl-5-[(3-butyl-2,5-dioxo-4-imidazolidinylidene)methyl]-1H-imidazol-1-yl]methyl]-3-chlorobenzoate]",8.00
13,"CCCCc1ncc(/C=C2/C(=O)N(COC)C(=O)N2Cc2csc(C)n2)n1Cc1ccc(C(=O)OC)cc1 [Example 56, Methyl Z-4-[[2-butyl-5-[[1-(methoxymethyl)-3-[(2-methyl-4-thiazolyl)methyl]-2,5-dioxo-4-imidazolidinylidene]methyl]-1H-imidazol-1-yl]methyl]benzoate dihydrochloride]",7.32
14,"CCCCc1nc(Br)c(/C=C2/C(=O)NC(=O)N2CCCC)n1Cc1ccc(-c2ccccc2C(=O)OC)cc1 [Example 97a, Methyl Z-4'-[[4-bromo-2-butyl-5-[(3-butyl-2,5-dioxo-4-imidazolidinylidene)methyl]-1H-imidazol-1-yl]methyl][1,1'-biphenyl]-2-carboxylate]",6.15
15,"CCCCc1ncc(/C=C2/C(=O)N(CCCC)C(=O)N2Cc2c(C)noc2C)n1Cc1ccc(C(=O)OC)cc1 [Example 69, Methyl Z-4-[[2-butyl-5-[[1-butyl-3-[(3,5-dimethyl-4-isoxazolyl)methyl]-2,5-dioxo-4-imidazolidinylidene]methyl]-1H-imidazol-1-yl]methyl]benzoate monohydrochloride]",6.70
16,"CCCCc1ncc(/C=C2/C(=O)N(CCCC)C(=O)N2Cc2csc(C)n2)n1Cc1ccc(C2(C(=O)OC)CCCC2)cc1 [Example 84, Methyl Z-1-[4-[[2-butyl-5-[[1-butyl-[3(2-methyl-4-thiazoly)methyl]-2,5-dioxo-4-imidazolidinylidene]methyl]-1H-imidazol-1-yl]methyl]phenyl]cyclopentane-carboxylate monohydrochloride]",6.91
17,CCCCc1ncc(/C=C2/C(=O)NC(=O)N2CCCC)n1Cc1ccc(C2(C(=O)OC)CCCCC2)cc1 [Example 88a],6.56
18,"CCCCc1ncc(/C=C2/C(=O)N(CCCC)C(=O)N2CCCC)n1Cc1ccc(C(=O)OC)cc1 [Example 33, Methyl Z-4-[[2-butyl-5-[(1,3-dibutyl-2,5-dioxo-4-imidazolidinylidene)methyl]-1 H-imidazol-1-yl]methyl]benzoate monohydrochloride]",8.07
19,"CCCCc1ncc(/C=C2\NC(=O)N(CCCC(F)(F)F)C2=O)n1Cc1ccc(C(=O)OC)cc1 [Example 107, Methyl Z-4-[[2-butyl-5-[[2,5-dioxo-4,4,4,-(trifluorobutyl)-4-imidazolidinylidene]methyl]-1H-imidazol-1-yl]methyl]benzoate]",5.84
20,"CCCCc1ncc(/C=C2/C(=O)N(CC3CC3)C(=O)N2Cc2cccs2)n1Cc1ccc(C(=O)OC)cc1 [Example 89, Methyl Z-4-[[2-butyl-5-[[1-(cyclopropylmethyl)-2,5-dioxo-3-(2-thienylmethyl)-4-imidazolidinylidene]methyl]-1H-imidazol-1-yl]methyl]benzoiate monohydrochloride]",8.59
21,"CCCCc1ncc(/C=C2/C(=O)N(CCCC(F)(F)F)C(=O)N2Cc2csc(C)n2)n1Cc1ccc(C(=O)OC)cc1 [Example 111, Methyl Z-4-[[2-Butyl-5-[[3-[(2-methyl-4-thiazoyl)methyl]-2,5-dioxo-1-(4,4,4-trifluorobutyl)-4-imidazolidinylidene]methyl]-1H-imidazol-1-yl]methyl]benzoate dihydrochloride]",7.15
22,"CCCCc1ncc(/C=C2/C(=O)N(CCCC)C(=O)N2Cc2cccc[n+]2[O-])n1Cc1ccc(C(=O)OC)cc1 [Example 57, Methyl Z-4-[[2-butyl-5-[[1-butyl-2,5-dioxo-3-[(2-pyridinyl-N-oxide)-methyl]-4-imidazolidinylidene]methyl]-1H-imidazol-1-yl]methyl]benzoate]",6.59
23,"CCCCc1ncc(/C=C2/C(=O)N(CCCC)C(=O)N2Cc2ccc(-c3ccccc3)cc2)n1Cc1ccc(C(=O)OC)cc1 [Example 102, Methyl Z-4-[[5-[[3-[(1,1'-biphenyl)-4-ylmethyl]-1-butyl-2,5-dioxo-4-imidazolidinylidene]methyl]-2-butyl-1H-imidazol-1-yl]methyl]benzoate]",< 6.00
24,"CCCCc1ncc(/C=C2/C(=O)NC(=O)N2CCCC)n1Cc1ccc(C(=O)OC)cc1 [Example 15b, (Z)-4-[[2-Butyl-5-[(3-butyl-2,5-dioxo-4-imidazolidinylidene)methyl]-1H-imidazole-1-yl]methyl]benzoic acid, methyl ester]",7.99
25,"CCCCc1ncc(/C=C2/C(=O)NC(=O)N2CCCC)n1Cc1ccc(-c2ccccc2-c2nn[nH]n2)cc1 [Example 91, Z-1-Butyl-5-[[2-butyl-3-[[2'-(1H-tetrazol-5-yl)[1,1'-biphenyl]-4-yl]methyl]-3H-imidazol-4-yl]methylene]-2,4-imidazolidinedione]",8.86
26,"CCCCc1ncc(/C=C2/C(=O)N(CCCC)C(=O)N2C(c2ccccc2)c2ccccc2)n1Cc1ccc(C(=O)OC)cc1 [Example 42, Methyl Z-4-[[2-butyl-5-[[1-butyl-2,5-dioxo-3-(diphenylmethyl)-4-imidazolidinylidene]methyl]-1H-imidazol-1-yl]methyl]benzoate mono hydrochloride]",6.05
27,"CCCCc1ncc(/C=C2/C(=O)N(CCCC(F)(F)F)C(=O)N2CCCC(F)(F)F)n1Cc1ccc(C(=O)OC)cc1 [Example 113, dihydrochloride]",7.74
